The values below come from patent publication US7485651B2, “Compounds with activity on muscarinic receptors” (Acadia Pharmaceuticals, Inc., priority 1998, dated 2009).

Each structure is given as a SMILES string.

For experiment [1], the target named is T1, α-adrenergic receptor subtype 2C (Homo sapiens, UniProt P18825).
T1 sequence (P18825 1-462): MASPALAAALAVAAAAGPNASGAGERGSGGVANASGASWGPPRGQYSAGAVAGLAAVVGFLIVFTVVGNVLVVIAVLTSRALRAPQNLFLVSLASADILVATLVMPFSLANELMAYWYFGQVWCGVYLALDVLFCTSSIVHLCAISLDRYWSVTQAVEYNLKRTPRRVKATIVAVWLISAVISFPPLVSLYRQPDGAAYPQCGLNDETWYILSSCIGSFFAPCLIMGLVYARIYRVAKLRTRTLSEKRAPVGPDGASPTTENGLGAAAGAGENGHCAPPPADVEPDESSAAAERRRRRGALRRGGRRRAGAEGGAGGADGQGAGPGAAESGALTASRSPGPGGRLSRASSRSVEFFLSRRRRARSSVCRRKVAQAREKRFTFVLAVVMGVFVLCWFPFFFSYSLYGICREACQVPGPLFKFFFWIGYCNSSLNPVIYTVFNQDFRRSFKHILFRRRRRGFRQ
Put plainly: Test against other receptors: α-adrenergic 2C. In kind it is cell-based.

The target in experiment [2] is T2, α-adrenergic receptor subtype 1B (Homo sapiens, UniProt P35368).
T2 sequence (P35368 1-520): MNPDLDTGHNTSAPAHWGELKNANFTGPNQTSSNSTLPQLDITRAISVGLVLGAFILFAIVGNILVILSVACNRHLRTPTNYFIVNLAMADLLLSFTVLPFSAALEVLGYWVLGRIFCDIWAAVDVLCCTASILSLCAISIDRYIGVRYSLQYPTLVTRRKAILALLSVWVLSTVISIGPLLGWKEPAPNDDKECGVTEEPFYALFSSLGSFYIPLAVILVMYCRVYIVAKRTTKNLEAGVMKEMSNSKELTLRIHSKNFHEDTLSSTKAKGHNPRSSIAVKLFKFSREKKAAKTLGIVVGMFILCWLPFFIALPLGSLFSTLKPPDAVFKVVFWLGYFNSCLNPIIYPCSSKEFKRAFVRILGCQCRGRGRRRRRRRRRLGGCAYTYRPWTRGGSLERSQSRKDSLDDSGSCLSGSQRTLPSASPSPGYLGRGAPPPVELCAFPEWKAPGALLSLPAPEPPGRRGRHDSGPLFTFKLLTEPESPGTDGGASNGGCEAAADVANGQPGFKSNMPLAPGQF
Put plainly: Test against other receptors: α-adrenergic 1B. In kind it is cell-based.

For the molecule `CCCCC1CCN(CCCC(=O)c2ccccc2C)CC1` [Compound A, 4-n-Butyl-1-[4-(2-methylphenyl)-4-oxo-1-butyl]piperidine], in experiment [1], the agonist activity result was “no significant activity” and the “inhibition of receptor responses (antagonist experiments)” value is “did not inhibit”. Besides, the agonist activity result in experiment [2] was “no significant activity”.
